Reference: EPA's ToxRefDB 2

How the values were obtained:
rat [1] = conditions: Multigenerational reproductive toxicity study, sprague dawley, Oral, Feed, dose end: 2 generation
mouse [2] = conditions: Carcinogenicity, cd1, Oral, Feed, dose end: 78 week, group: systemic
dog [3] = conditions: Chronic toxicity; beagle; Oral; Gavage/Intubation; dose end: 12 month; group: systemic; systemic / clinical chemistry / alkaline phosphatase (alp/alk) / alkaline phosphatase (alp/alk) + systemic / clinical chemistry / urea …
rat [4] = conditions: Combined chronic toxicity/carcinogenicity, sprague dawley, Oral, Feed, dose end: 24 month
rat [5] = conditions: Multigenerational reproductive toxicity study, sprague dawley, Oral, Feed, dose end: 3 generation
rat [6] = conditions: Combined chronic toxicity/carcinogenicity, sprague dawley, Oral, Feed, dose end: 24 month, group: systemic
rat [7] = conditions: Carcinogenicity, fischer, Oral, Feed, dose end: 2 year, group: systemic
rat [8] = conditions: Subchronic oral toxicity in rodents, fischer, Feed, dose end: 14 week, group: systemic
mouse [9] = conditions: Subchronic oral toxicity in rodents, b6c3f1, Feed, dose end: 14 week, group: systemic, systemic / hematology / mean corpuscular (cell) volume (mcv) / mean corpuscular (cell) volume (mcv) + systemic / hematology / mean …
mouse [10] = conditions: Carcinogenicity, b6c3f1, Oral, Feed, dose end: 2 year, group: systemic
rat [11] = conditions: Multigenerational reproductive toxicity study, WIST Han Ibm: WIST ISPF, Oral, Feed, dose end: 2 generation
rabbit = conditions: Prenatal developmental toxicity study, himalayan, Oral, Gavage/Intubation, dose end: 18 GD, group: maternal
dog [12] = conditions: Chronic toxicity, beagle, Oral, Feed, dose end: 52 week, group: systemic
rat [13] = conditions: Prenatal developmental toxicity study, wistar, Oral, Gavage/Intubation, dose end: 16 GD
rat [14] = conditions: Sub-acute repeat dose toxicity, Oral, Gavage/Intubation, dose end: 4 day, group: systemic
rat [15] = conditions: Sub-acute repeat dose toxicity, Oral, Gavage/Intubation, dose end: 4 day, group: systemic; remark: listed apart in the source
rat [16] = conditions: Sub-acute repeat dose toxicity, Oral, Gavage/Intubation, dose end: 4 day, group: systemic; remark: listed apart in the source
rat [17] = conditions: Sub-acute repeat dose toxicity, Oral, Gavage/Intubation, dose end: 4 day, group: systemic; remark: listed apart in the source
[18] = group: cholinesterase, cholinesterase / cholinesterase / cholinesterase / erythrocyte cholinesterase (che)
[19] = group: offspring, systemic / in life observation / body weight / offspring (pup) weight
[20] = group: offspring, systemic / in life observation / body weight / offspring (pup) weight + developmental / offspring survival late / lactation index / …
[21] = group: parental, systemic / in life observation / body weight / body weight + systemic / in life observation / body weight / body weight gain + systemic / in…
[22] = group: reproductive, reproductive / offspring survival early / litter size / litter size
[23] = systemic / in life observation / body weight / body weight gain + systemic / pathology microscopic / ovary / cyst + systemic / in life …
[24] = group: cholinesterase, cholinesterase / cholinesterase / cholinesterase / brain cholinesterase (che) + cholinesterase / cholinesterase / cholinesterase / …
[25] = group: systemic, systemic / pathology microscopic / nerve / cholesterol cleft(s) + systemic / pathology microscopic / nerve / mineralization + systemic / …
[26] = group: offspring, systemic / in life observation / body weight / offspring (pup) weight + developmental / offspring survival late / viability index / …
[27] = group: parental, systemic / in life observation / body weight / body weight + systemic / in life observation / body weight / body weight gain
[28] = group: reproductive, reproductive / offspring survival early / live fetuses / live fetuses
[29] = systemic / in life observation / body weight / body weight
[30] = systemic / in life observation / body weight / body weight + systemic / in life observation / food consumption / food consumption
[31] = systemic / clinical chemistry / alanine aminotransferase (alt/sgpt) / alanine aminotransferase (alt/sgpt) + systemic / clinical chemistry / …
[32] = systemic / clinical chemistry / bile acids / bile acids + systemic / in life observation / body weight / body weight + systemic / in life …
[33] = systemic / in life observation / body weight / body weight + systemic / pathology microscopic / nose / pigmentation
[34] = group: offspring, systemic / in life observation / body weight / offspring (pup) weight + systemic / in life observation / body weight / offspring (pup) …
[35] = group: parental, systemic / in life observation / body weight / body weight + systemic / in life observation / body weight / body weight gain + systemic / …
[36] = reproductive / reproductive performance / aborted / aborted + systemic / in life observation / body weight / body weight gain + systemic / …
[37] = systemic / clinical chemistry / alkaline phosphatase (alp/alk) / alkaline phosphatase (alp/alk) + systemic / organ weight / liver / absolute…
[38] = group: developmental, systemic / in life observation / body weight / fetal weight + systemic / in life observation / body weight / offspring (pup) weight gain
[39] = group: developmental, systemic / in life observation / body weight / fetal weight + systemic / in life observation / body weight / offspring (pup) weight gain + …
[40] = group: maternal, systemic / in life observation / body weight / body weight gain + systemic / in life observation / food consumption / food efficiency
[41] = group: maternal, systemic / in life observation / body weight / body weight gain + systemic / in life observation / food consumption / food efficiency + …
[42] = systemic / in life observation / body weight / body weight + systemic / organ weight / liver / absolute + systemic / in life observation / …
[43] = systemic / organ weight / liver / absolute
[44] = systemic / organ weight / liver / absolute + systemic / in life observation / clinical signs / salivation + systemic / pathology microscopic…
[45] = systemic / in life observation / body weight / body weight + systemic / in life observation / clinical signs / abnormal respiratory sounds…
[46] = systemic / in life observation / clinical signs / abnormal respiratory sounds + systemic / in life observation / clinical signs / fur (…

## CCSC(=O)N(CC)C1CCCCC1 [Cycloate]
Rat [1]; [18]
  LEL: 50 mg/kg/day
  LOAEL: > 50 mg/kg/day
  NEL: 20 mg/kg/day
  NOAEL: ≥ 50 mg/kg/day
Rat [1]; [19]
  LEL: 20 mg/kg/day
  LOAEL: 20 mg/kg/day
Rat [1]; [20]
  NEL: 2.5 mg/kg/day
  NOAEL: 2.5 mg/kg/day
Rat [1]; [21]
  LEL: 20 mg/kg/day
  LOAEL: 20 mg/kg/day
  NEL: 2.5 mg/kg/day
  NOAEL: 2.5 mg/kg/day
Rat [1]; [22]
  LEL: 50 mg/kg/day
  LOAEL: 50 mg/kg/day
  NEL: 20 mg/kg/day
  NOAEL: 20 mg/kg/day
Mouse [2]; systemic / in life observation / body weight / body weight gain + systemic / pathology microscopic / ovary / cyst
  LOAEL: 167 mg/kg/day
Mouse [2]; [23]
  LEL: 167 mg/kg/day
  NEL: 49 mg/kg/day
  NOAEL: 49 mg/kg/day
Dog [3]
  LEL: 50 mg/kg/day
  LOAEL: 50 mg/kg/day
  NEL: 0.5 mg/kg/day
  NOAEL: 0.5 mg/kg/day
Rat [4]; [24]
  LEL: 8 mg/kg/day
  LOAEL: 8 mg/kg/day
  NEL: < 8 mg/kg/day
  NOAEL: < 8 mg/kg/day
Rat [4]; [25]
  LEL: 8 mg/kg/day
  LOAEL: 8 mg/kg/day
  NEL: < 8 mg/kg/day
  NOAEL: < 8 mg/kg/day
Rat [5]; [19]
  LEL: 24 mg/kg/day
  LOAEL: 24 mg/kg/day
Rat [5]; [26]
  NEL: 8 mg/kg/day
  NOAEL: 8 mg/kg/day
Rat [5]; [27]
  LEL: 24 mg/kg/day
  LOAEL: 24 mg/kg/day
  NEL: 8 mg/kg/day
  NOAEL: 8 mg/kg/day
Rat [5]; [28]
  LEL: 72 mg/kg/day
  LOAEL: > 72 mg/kg/day
  NEL: 24 mg/kg/day
  NOAEL: ≥ 72 mg/kg/day
Rat [6]; systemic / organ weight / heart / absolute
  LEL: 2.4 mg/kg/day
Rat [6]; systemic / organ weight / heart / absolute + systemic / pathology microscopic / skeletal muscle / atrophy + systemic / pathology microscopic…
  NEL: 0.4 mg/kg/day
Rat [6]; systemic / pathology microscopic / spinal cord / atrophy + systemic / pathology microscopic / spinal cord / degeneration
  LOAEL: 3.1 mg/kg/day
Rat [6]; systemic / pathology microscopic / spinal cord / atrophy + systemic / pathology microscopic / spinal cord / degeneration + systemic / in …
  NOAEL: 0.5 mg/kg/day

## O=C/C=C/c1ccccc1 [(2E)-3-Phenylprop-2-enal]
Rat [7]; [29]
  LOAEL: 200 mg/kg/day
Rat [7]; [30]
  LEL: 100 mg/kg/day
  NEL: 50 mg/kg/day
  NOAEL: 100 mg/kg/day
Rat [8]; [31]
  LOAEL: > 3100 mg/kg/day
  NOAEL: ≥ 3100 mg/kg/day
Rat [8]; [32]
  LEL: 275 mg/kg/day
  NEL: < 275 mg/kg/day
Mouse [9]
  LEL: 1320 mg/kg/day
  LOAEL: > 5200 mg/kg/day
  NEL: 650 mg/kg/day
  NOAEL: ≥ 5200 mg/kg/day
Mouse [10]; [29]
  LOAEL: 270 mg/kg/day
Mouse [10]; [33]
  LEL: 270 mg/kg/day
  NEL: 125 mg/kg/day
  NOAEL: 125 mg/kg/day

## CCOC(=O)C1=NN(c2ccc(Cl)cc2Cl)C(C)(C(=O)OCC)C1 (centres undefined) [Mefenpyr-diethyl]
Rat [11]; [34]
  LEL: 250 mg/kg/day
  LOAEL: 250 mg/kg/day
  NEL: 50 mg/kg/day
  NOAEL: 50 mg/kg/day
Rat [11]; [35]
  LEL: 250 mg/kg/day
  LOAEL: 250 mg/kg/day
  NEL: 50 mg/kg/day
  NOAEL: 50 mg/kg/day
rabbit; reproductive / reproductive performance / aborted / aborted + reproductive / offspring survival early / live fetuses / live fetuses
  LOAEL: 250 mg/kg/day
rabbit; reproductive / reproductive performance / aborted / aborted + reproductive / offspring survival early / live fetuses / live fetuses + …
  LEL: 250 mg/kg/day
rabbit; [36]
  NEL: 100 mg/kg/day
  NOAEL: 100 mg/kg/day
Dog [12]; [37]
  LOAEL: 260 mg/kg/day
  NOAEL: 51.4 mg/kg/day
Dog [12]; systemic / organ weight / liver / relative to body weight
  LEL: 57.6 mg/kg/day
Dog [12]; systemic / organ weight / liver / relative to body weight + systemic / clinical chemistry / alkaline phosphatase (alp/alk) / alkaline …
  NEL: 11.1 mg/kg/day
Rat [13]; [38]
  LOAEL: 1000 mg/kg/day
  NOAEL: < 1000 mg/kg/day
Rat [13]; [39]
  LEL: 1000 mg/kg/day
  NEL: < 1000 mg/kg/day
Rat [13]; [40]
  LOAEL: 1000 mg/kg/day
  NOAEL: < 1000 mg/kg/day
Rat [13]; [41]
  LEL: 1000 mg/kg/day
  NEL: < 1000 mg/kg/day

## CNCc1ccc(S(C)(=O)=O)cc1Oc1ccc2c(c1)CCCC2
Rat [14]; [42]
  LOAEL: > 500 mg/kg/day
  NOAEL: ≥ 500 mg/kg/day
Rat [14]; [43]
  LEL: 30 mg/kg/day
  NEL: < 30 mg/kg/day
Rat [15]; [43]
  LEL: 30 mg/kg/day
  NEL: < 30 mg/kg/day
Rat [15]; [44]
  LOAEL: > 100 mg/kg/day
  NOAEL: ≥ 100 mg/kg/day
Rat [16]; [45]
  LOAEL: > 500 mg/kg/day
  NOAEL: ≥ 500 mg/kg/day
Rat [16]; [43]
  LEL: 30 mg/kg/day
  NEL: < 30 mg/kg/day
Rat [17]; [46]
  LOAEL: > 500 mg/kg/day
  NEL: 30 mg/kg/day
  NOAEL: ≥ 500 mg/kg/day
Rat [17]; systemic / in life observation / clinical signs / salivation
  LEL: 100 mg/kg/day
